Laboratory results as given in the supplement of paper PMC10307832.

Experiments:
Assay in all cases: relative viability (nuclei count vs DMSO), 5 days (fraction); higher = more cells survive
[1] = compound: COc1cc(-c2nn([C@H]3CC[C@H](N4CCN(C(C)=O)CC4)CC3)c3ncnc(N)c23)ccc1NC(=O)c1cc2ccccc2n1C + NC(=O)Nc1cc(-c2cccc(F)c2)sc1C(=O)N[C@H]1CCCNC1 [AZD7762] (partner 0.2 µM)
Method in brief: (§1)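 Cells from lung cancer lines were seeded into 1536-well plates and, one day later, dosed by pin tool. Treatments were either a single drug or a fixed dose of an anchor drug with five library-drug doses (not always all listed) in √10 steps. After 5 days, nuclei were stained in a one-step fixation (final 0.05% Triton X-100, 1% formaldehyde, 1 ug/ml Hoechst) and counted on 4× images, and relative viability is the treated-to-vehicle nuclei ratio, as the median of duplicate plates.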

Midostaurin + Vorinostat = compound: CO[C@@H]1[C@H](N(C)C(=O)c2ccccc2)C[C@H]2O[C@]1(C)n1c3ccccc3c3c4c(c5c6ccccc6n2c5c31)C(=O)NC4 [Midostaurin] + O=C(CCCCCCC(=O)Nc1ccccc1)NO [Vorinostat] (partner 1 µM)
Method in brief: as §1

Midostaurin + Pictilisib = compound: CO[C@@H]1[C@H](N(C)C(=O)c2ccccc2)C[C@H]2O[C@]1(C)n1c3ccccc3c3c4c(c5c6ccccc6n2c5c31)C(=O)NC4 [Midostaurin] + CS(=O)(=O)N1CCN(Cc2cc3nc(-c4cccc5[nH]ncc45)nc(N4CCOCC4)c3s2)CC1 [Pictilisib] (partner 1 µM)
Method in brief: as §1

Midostaurin + Foretinib = compound: CO[C@@H]1[C@H](N(C)C(=O)c2ccccc2)C[C@H]2O[C@]1(C)n1c3ccccc3c3c4c(c5c6ccccc6n2c5c31)C(=O)NC4 [Midostaurin] + COc1cc2c(Oc3ccc(NC(=O)C4(C(=O)Nc5ccc(F)cc5)CC4)cc3F)ccnc2cc1OCCCN1CCOCC1 [Foretinib] (partner 0.25 µM)
Method in brief: as §1

[2] = compound: COc1cc(-c2nn([C@H]3CC[C@H](N4CCN(C(C)=O)CC4)CC3)c3ncnc(N)c23)ccc1NC(=O)c1cc2ccccc2n1C + CC(=O)Nc1cccc(-n2c(=O)n(C3CC3)c(=O)c3c(Nc4ccc(I)cc4F)n(C)c(=O)c(C)c32)c1 [Trametinib] (partner 0.02 µM)
Method in brief: as §1

Cell Line	relative viability ([1]; first compound 0.0128 µM)	relative viability ([1]; first compound 0.04048 µM)	relative viability ([1]; first compound 0.128 µM)	relative viability ([1]; first compound 1.28 µM)	relative viability (Midostaurin + Vorinostat; first compound 0.01 µM)	relative viability (Midostaurin + Vorinostat; first compound 0.03162 µM)	relative viability (Midostaurin + Vorinostat; first compound 0.1 µM)	relative viability (Midostaurin + Vorinostat; first compound 0.3162 µM)	relative viability (Midostaurin + Pictilisib; first compound 0.01 µM)	relative viability (Midostaurin + Pictilisib; first compound 0.03162 µM)	relative viability (Midostaurin + Pictilisib; first compound 0.1 µM)	relative viability (Midostaurin + Pictilisib; first compound 0.3162 µM)	relative viability (Midostaurin + Foretinib; first compound 0.01 µM)	relative viability (Midostaurin + Foretinib; first compound 0.03162 µM)	relative viability (Midostaurin + Foretinib; first compound 0.1 µM)	relative viability (Midostaurin + Foretinib; first compound 0.3162 µM)	relative viability ([2]; first compound 0.0128 µM)	relative viability ([2]; first compound 0.04048 µM)	relative viability ([2]; first compound 0.128 µM)	relative viability ([2]; first compound 1.28 µM)
HCC-78	0.52	0.851	0.52	0.331	0.545	0.438	0.365	0.312	0.216	0.216	0.229	0.19	0.65	0.532	0.541	0.555	0.851	0.536	0.776	0.453
HCC-366	0.252	0.221	0.246	0.193	0.364	0.306	0.308	0.0688	0.167	0.116	0.142	0.137	0.932	0.957	0.81	0.75	0.309	0.281	0.305	0.179
IA-LM					0.822	0.889	0.943	0.907	0.405		0.497	0.449	1.15	0.86	1.23	1.05				
NCI-H520					0.684	0.702	0.694	0.412	0.257	0.239	0.3	0.362	0.68	0.715	0.661	0.688	0.606	0.354	0.55	0.361
NCI-H522	0.73	0.848	0.909	0.892	0.862	1.18	0.827	1.03									0.77	0.514	0.723	0.73
NCI-H661					0.777	0.72	0.792	0.739	0.397	0.386	0.33	0.438	0.903	0.847	1.02	1.04	0.474	0.469	0.557	0.506
NCI-H1299									0.838	0.73	0.527	0.273	1.07	1.04	1.05	0.976				
NCI-H1563									0.605	0.722	0.599	0.692	0.985	0.976	0.847	0.785				
NCI-H1623													0.995	0.876	0.949	0.941				
NCI-H1648	0.686	0.609	0.75	0.566	0.534			0.497									0.478	0.311	0.386	0.293
NCI-H1650					0.57	0.606	0.585	0.793	0.616	0.592	0.657	0.569	1.16	1.11	0.911	1.19	0.489	0.448	0.586	0.452
NCI-H1703	0.138	0.114	0.129	0.117					0.276	0.226	0.245	0.197	0.351	0.316	0.292	0.325				
NCI-H1792	0.646	0.679	0.632	0.517					0.323	0.25	0.257	0.244					0.433	0.132	0.401	0.348
NCI-H2009					0.808	0.745	0.703	0.657	0.891	0.833	0.752	0.555	1.22	1.09	0.88	1.16	0.251	0.252	0.236	0.195
NCI-H2023					0.601	0.78	0.5	0.146	0.235	0.249	0.208	0.186	0.856	0.984	0.686	0.631	0.402	0.445	0.585	0.454
NCI-H2228					0.878	0.424	0.716	0.356	0.422	0.454	0.452	0.617	0.922	0.85	1.08	0.905	0.448	0.146	0.539	0.377
NCI-H2342	0.464	0.422	0.477	0.361	0.741	0.764	0.836	0.831					1.03	0.933	0.961	0.92	0.92	0.766	0.886	0.745
SK-LU-1					0.735	0.765	0.685	0.47	0.602	0.676	0.56	0.572	0.799	0.869	0.747	0.621	0.455	0.316	0.432	0.336
SK-MES-1					1.07	0.968	0.982	1.08	0.412	0.332	0.431	0.368	0.927	0.925	0.963	0.781	0.563	0.4	0.539	0.279
SW 900	0.547	0.564	0.612	0.402	0.402	0.502	0.52	0.458					0.876	0.746	0.822	0.763	1.05	0.82	0.778	0.432
SW 1573					0.717	1.09	0.732	1.02	0.557	0.474	0.456	0.454	1.05	0.806	1.03	1.01	0.52	0.556	0.492	0.477
